Tests used:
[1] = biological target: T1, Cytidine Deaminase (CDA) (Homo sapiens, UniProt P32320, K27Q); assay: HPLC analysis of enzymatic deamination reactions; format: biochemical; settings: after 60 minutes
[2] = biological target: T1, Cytidine Deaminase (CDA); assay: CDA-mediated deamination monitored by absorbance; settings: for k1 / k2: Michaelis-Menten differential equations; for k−1: Michaelis-Menten, values assumed to be ≤10% of k1 values; for Km: calculated from k1, k−1 and k2
[3] = biological target: T1, Cytidine Deaminase (CDA); assay: CDA-mediated deamination monitored by emission; settings: for k1 / k2: Michaelis-Menten differential equations; for k−1: Michaelis-Menten, values assumed to be ≤10% of k1 values; for Km: calculated from k1, k−1 and k2
[4] = pseudo-first order fit to absorption curves
[5] = pseudo-first order fit, absorption (Abs)
[6] = pseudo-first order fit to emission curves
[7] = pseudo-first order fit, emission (Em)

T1 sequence (P32320 whole entry K27Q): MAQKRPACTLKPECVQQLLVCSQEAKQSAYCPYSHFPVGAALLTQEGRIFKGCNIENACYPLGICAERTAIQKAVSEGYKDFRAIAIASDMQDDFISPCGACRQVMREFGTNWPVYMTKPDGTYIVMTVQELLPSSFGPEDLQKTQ

Cc1sc([C@@H]2O[C@H](CO)[C@@H](O)[C@H]2O)c2[nH]c(=O)nc(N)c12 [^mthC]
conversion to corresponding U analogue by CDA (HPLC) [1]: complete conversion | k1 ([2]; absorption (Abs)): 750000 ± 160000 M⁻¹ s⁻¹ | k2 ([2]; absorption (Abs)): 56 ± 5.9 s⁻¹ | k−1 ([2]; absorption (Abs)): 0.075 s⁻¹ | Km ([2]; absorption (Abs)): 75 µM | kapp [2, 4]: 6.1 ± 0.2 s^–1 | kapp [2, 5]: 6.1 ± 0.2 x 10^−3 s^−1 | t1/2 [2, 5]: 1.83 ± 0.033 min | k1 ([3]; emission (Em)): 710000 ± 180000 M⁻¹ s⁻¹ | k2 ([3]; emission (Em)): 45 ± 2.3 s⁻¹ | k−1 ([3]; emission (Em)): 0.071 s⁻¹ | Km ([3]; emission (Em)): 63 µM | kapp [3, 6]: 5.7 ± 0.1 s^–1 | kapp [3, 7]: 5.7 ± 0.1 x 10^−3 s^−1 | t1/2 [3, 7]: 2 ± 0.13 min

Nc1nc(=O)[nH]c2c([C@@H]3O[C@H](CO)[C@@H](O)[C@H]3O)scc12 [^thC]
conversion to corresponding U analogue by CDA (HPLC) [1]: complete conversion | k1 ([2]; absorption (Abs)): 1.01e+06 ± 470000 M⁻¹ s⁻¹ | k2 ([2]; absorption (Abs)): 34 ± 7.2 s⁻¹ | k−1 ([2]; absorption (Abs)): 0.101 s⁻¹ | Km ([2]; absorption (Abs)): 34 µM | kapp [2, 4]: 7.2 ± 0.2 s^–1 | kapp [2, 5]: 7.2 ± 0.2 x 10^−3 s^−1 | t1/2 [2, 5]: 1.53 ± 0.083 min | k1 ([3]; emission (Em)): 950000 ± 140000 M⁻¹ s⁻¹ | k2 ([3]; emission (Em)): 46 ± 5.3 s⁻¹ | k−1 ([3]; emission (Em)): 0.095 s⁻¹ | Km ([3]; emission (Em)): 49 µM | kapp [3, 6]: 7.4 ± 0.1 s^–1 | kapp [3, 7]: 7.4 ± 0.1 x 10^−3 s^−1 | t1/2 [3, 7]: 1.57 ± 0.033 min

Nc1nc(=O)[nH]c2c([C@@H]3O[C@H](CO)[C@@H](O)[C@H]3O)snc12 [^tzC]
conversion to corresponding U analogue by CDA (HPLC) [1]: complete conversion | k1 ([2]; absorption (Abs)): 1.04e+06 ± 10000 M⁻¹ s⁻¹ | k2 ([2]; absorption (Abs)): 3.2 ± 0.3 s⁻¹ | k−1 ([2]; absorption (Abs)): 0.104 s⁻¹ | Km ([2]; absorption (Abs)): 3.1 µM | kapp [2, 4]: 3.3 ± 0.1 s^–1 | kapp [2, 5]: 3.3 ± 0.1 x 10^−3 s^−1 | t1/2 [2, 5]: 3.5 ± 0.267 min | k1 ([3]; emission (Em)): 1.06e+06 ± 320000 M⁻¹ s⁻¹ | k2 ([3]; emission (Em)): 4.6 ± 1.3 s⁻¹ | k−1 ([3]; emission (Em)): 0.106 s⁻¹ | Km ([3]; emission (Em)): 4.4 µM | kapp [3, 6]: 4.1 ± 0.1 s^–1 | kapp [3, 7]: 4.1 ± 0.1 x 10^−3 s^−1 | t1/2 [3, 7]: 2.83 ± 0.167 min
